How the values were obtained:
[1] = system: Cellular tumor antigen p53 (Homo sapiens), P04637 [Y220C]; test: Reactivation of N-terminal 6xHis-tagged recombinant p53 Y220C mutant (94 to 292 residues) (unknown origin) protein assessed as stabilization of Protein/DNA complex measuring substrate concentration required to increase DNA binding incubated for 48 mins by TR-FRET assay
[2] = AUC (0 to last) in C57BL/6 mouse at 50 mg/kg, po measured for 24 hrs by LC-MS/MS analysis; format: ADME, organism-based; conditions: in vivo
[3] = system: NUGC-3; test: Antitumor activity against human NUGC-3 cells xenografted in female Balb/c nude mouse assessed as tumor growth inhibition at 50 mg/kg, po relative to control; format: functional; conditions: read-out: TGI
[4] = Cmax in C57BL/6 mouse at 50 mg/kg, po measured for 24 hrs by LC-MS/MS analysis; format: ADME, organism-based; conditions: in vivo
[5] = system: NUGC-3; test: Antitumor activity against human NUGC-3 cells xenografted in female Balb/c nude mouse assessed as tumor growth inhibition at 25 mg/kg, po relative to control; format: functional; conditions: read-out: TGI

Compound: CCN(CC)C1CCN(Cc2cc(C#CCNc3ccccc3)cc(I)c2O)CC1
- EC1.5 [1]: 1.6 µM

Compound: CCn1c(C#CCNc2ccccc2)cc2cc(CNC)ccc21
- EC1.5 [1]: 13.6 µM

Compound: CCn1c2ccccc2c2cc(CNC)ccc21
- EC1.5 [1]: 37.2 µM

Compound: CN1CCC(Nc2cccc3c2cc(C#CCNc2ccc(C(C)(C)C#N)nc2)n3CC(F)(F)F)CC1
- EC1.5 [1]: 0.054 µM

Compound: CNC(=O)c1ccc(NCC#Cc2cc3c(N[C@@H]4CCN(C)C[C@@H]4F)cccc3n2CC(F)(F)F)c(OC)c1 [REZATAPOPT]
- AUC(0-t) at 24 h [2]: 163 µg·h/mL
- inhibition in vivo at 50 mg/kg [3]: 71%
- EC1.5 [1]: 0.009 µM
- Cmax [4]: 16600 ng/mL
- inhibition in vivo at 25 mg/kg [5]: 33%

Source: ChEMBL document CHEMBL6134835, “Rezatapopt (PC14586): A First-in-Class Small Molecule p53 Y220C Mutant Protein Stabilizer in Clinical Trials” (J Med Chem, 2025)
